# Laboratory results: PubChem BioAssay (NCI)
#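 48-hour exposure; five concentrations; linearly interpolated endpoints. TGI: total growth inhibition.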
# Tests used:
# Test in all cases: inhibition of tumour cell growth, NCI panel, 48 h
# UACC-257 melanoma = test system: UACC-257 melanoma
# OVCAR-5 ovarian = test system: OVCAR-5 ovarian
# IGROV1 ovarian = test system: IGROV1 ovarian
# SNB-75 CNS = test system: SNB-75 CNS
# CCRF-CEM leukemia = test system: CCRF-CEM leukemia
# SF-539 CNS = test system: SF-539 CNS
# A549 NSCLC = test system: A549 NSCLC
# A498 renal = test system: A498 renal
# SK-MEL-28 melanoma = test system: SK-MEL-28 melanoma
# MOLT-4 leukemia = test system: MOLT-4 leukemia
# OVCAR-3 ovarian = test system: OVCAR-3 ovarian
# MALME-3M melanoma = test system: MALME-3M melanoma
# PC-3 prostate = test system: PC-3 prostate
# NCI-H460 lung = test system: NCI-H460 lung
# HS 578T breast = test system: HS 578T breast
# SR leukemia = test system: SR leukemia
# 786-0 renal = test system: 786-0 renal
# OVCAR-4 ovarian = test system: OVCAR-4 ovarian
# MDA-N = test system: MDA-N
# U251 CNS = test system: U251 CNS
# NCI/ADR-RES ovarian = test system: NCI/ADR-RES ovarian
# RXF 393 renal = test system: RXF 393 renal
# HOP-62 NSCLC = test system: HOP-62 NSCLC
# SF-268 CNS = test system: SF-268 CNS
# COLO 205 colon = test system: COLO 205 colon
# K-562 leukemia = test system: K-562 leukemia
# LOX IMVI melanoma = test system: LOX IMVI melanoma
# HOP-92 NSCLC = test system: HOP-92 NSCLC
# HL-60(TB) leukemia = test system: HL-60(TB) leukemia
# HCT-15 colon = test system: HCT-15 colon
# M14 melanoma = test system: M14 melanoma
# MDA-MB-435 = test system: MDA-MB-435
# UACC-62 melanoma = test system: UACC-62 melanoma
# SK-MEL-2 melanoma = test system: SK-MEL-2 melanoma
# ACHN renal = test system: ACHN renal
# HT29 colon = test system: HT29 colon
# KM12 colon = test system: KM12 colon
# OVCAR-8 ovarian = test system: OVCAR-8 ovarian
# NCI-H522 lung = test system: NCI-H522 lung
# EKVX NSCLC = test system: EKVX NSCLC
# SK-MEL-5 melanoma = test system: SK-MEL-5 melanoma
# BT-549 breast = test system: BT-549 breast
# SF-295 CNS = test system: SF-295 CNS
# NCI-H226 lung = test system: NCI-H226 lung
# DU-145 prostate = test system: DU-145 prostate
# MDA-MB-231 breast = test system: MDA-MB-231 breast
# UO-31 renal = test system: UO-31 renal
# SNB-19 CNS = test system: SNB-19 CNS
# NCI-H23 lung = test system: NCI-H23 lung
# TK-10 renal = test system: TK-10 renal
# SN12C renal = test system: SN12C renal
# RPMI-8226 leukemia = test system: RPMI-8226 leukemia
# SK-OV-3 ovarian = test system: SK-OV-3 ovarian
# MCF7 breast = test system: MCF7 breast
# T-47D breast = test system: T-47D breast
# SW-620 colon = test system: SW-620 colon
# CAKI-1 renal = test system: CAKI-1 renal
# HCT-116 colon = test system: HCT-116 colon
# HCC-2998 colon = test system: HCC-2998 colon
smiles,measurement,setting,value
COc1cc2c(cc1OC)C(CCN)=NCC2,TGI,UACC-257 melanoma,32.9 µM
same,TGI,OVCAR-5 ovarian,> 57.8 µM
same,TGI,IGROV1 ovarian,52 µM
same,TGI,SNB-75 CNS,33 µM
same,TGI,CCRF-CEM leukemia,5.12 µM
same,TGI,SF-539 CNS,16.6 µM
same,TGI,A549 NSCLC,> 100 µM
same,TGI,A498 renal,62.8 µM
same,TGI,SK-MEL-28 melanoma,33.2 µM
same,TGI,MOLT-4 leukemia,43 µM
same,TGI,OVCAR-3 ovarian,35.2 µM
same,TGI,MALME-3M melanoma,33.1 µM
same,TGI,PC-3 prostate,29.6 µM
same,TGI,NCI-H460 lung,> 100 µM
same,TGI,HS 578T breast,59.9 µM
same,TGI,SR leukemia,23.8 µM
same,TGI,786-0 renal,18.4 µM
same,TGI,OVCAR-4 ovarian,47.4 µM
same,TGI,MDA-N,30.5 µM
same,TGI,U251 CNS,30.8 µM
same,TGI,NCI/ADR-RES ovarian,> 69 µM
same,TGI,RXF 393 renal,30.4 µM
same,TGI,HOP-62 NSCLC,> 57.4 µM
same,TGI,SF-268 CNS,36.3 µM
same,TGI,COLO 205 colon,27.4 µM
same,TGI,K-562 leukemia,43.3 µM
same,TGI,LOX IMVI melanoma,36.7 µM
same,TGI,HOP-92 NSCLC,15.1 µM
same,TGI,HL-60(TB) leukemia,2.06 µM
same,TGI,HCT-15 colon,38.9 µM
same,TGI,M14 melanoma,32.8 µM
same,TGI,MDA-MB-435,31.4 µM
same,TGI,UACC-62 melanoma,34.4 µM
same,TGI,SK-MEL-2 melanoma,31.9 µM
same,TGI,ACHN renal,31.7 µM
same,TGI,HT29 colon,41.3 µM
same,TGI,KM12 colon,40.2 µM
same,TGI,OVCAR-8 ovarian,33.1 µM
same,TGI,NCI-H522 lung,10.3 µM
same,TGI,EKVX NSCLC,59 µM
same,TGI,SK-MEL-5 melanoma,35.6 µM
same,TGI,BT-549 breast,33.6 µM
same,TGI,SF-295 CNS,> 100 µM
same,TGI,NCI-H226 lung,> 64.4 µM
same,TGI,DU-145 prostate,32.9 µM
same,TGI,MDA-MB-231 breast,30.8 µM
same,TGI,UO-31 renal,4.2 µM
same,TGI,SNB-19 CNS,> 100 µM
same,TGI,NCI-H23 lung,34.3 µM
same,TGI,TK-10 renal,22.8 µM
same,TGI,SN12C renal,35.1 µM
same,TGI,RPMI-8226 leukemia,29.9 µM
same,TGI,SK-OV-3 ovarian,> 100 µM
same,TGI,MCF7 breast,40.2 µM
same,TGI,T-47D breast,31.1 µM
same,TGI,SW-620 colon,17.1 µM
same,TGI,CAKI-1 renal,25.2 µM
same,TGI,HCT-116 colon,33.7 µM
O=C(N/N=C\c1ccc(Cl)cc1)Nc1ccc2ccccc2c1,TGI,UACC-257 melanoma,> 100 µM
same,TGI,OVCAR-5 ovarian,> 100 µM
same,TGI,IGROV1 ovarian,> 100 µM
same,TGI,SNB-75 CNS,76.8 µM
same,TGI,HCC-2998 colon,> 100 µM
same,TGI,CCRF-CEM leukemia,> 100 µM
same,TGI,SF-539 CNS,75.7 µM
same,TGI,A549 NSCLC,> 100 µM
same,TGI,A498 renal,> 100 µM
same,TGI,SK-MEL-28 melanoma,> 100 µM
same,TGI,MOLT-4 leukemia,> 100 µM
same,TGI,OVCAR-3 ovarian,> 100 µM
same,TGI,MALME-3M melanoma,> 100 µM
same,TGI,PC-3 prostate,> 100 µM
same,TGI,NCI-H460 lung,> 100 µM
same,TGI,HS 578T breast,76.9 µM
same,TGI,SR leukemia,> 100 µM
same,TGI,786-0 renal,38.4 µM
same,TGI,OVCAR-4 ovarian,39.2 µM
same,TGI,MDA-N,> 100 µM
same,TGI,U251 CNS,63.5 µM
same,TGI,NCI/ADR-RES ovarian,> 100 µM
same,TGI,RXF 393 renal,> 100 µM
same,TGI,HOP-62 NSCLC,51.3 µM
same,TGI,SF-268 CNS,71.3 µM
same,TGI,COLO 205 colon,> 100 µM
same,TGI,K-562 leukemia,> 100 µM
same,TGI,LOX IMVI melanoma,> 100 µM
same,TGI,HOP-92 NSCLC,77.7 µM
same,TGI,HCT-15 colon,> 100 µM
same,TGI,M14 melanoma,> 100 µM
same,TGI,MDA-MB-435,> 100 µM
same,TGI,UACC-62 melanoma,> 100 µM
same,TGI,SK-MEL-2 melanoma,> 100 µM
same,TGI,ACHN renal,> 100 µM
same,TGI,HT29 colon,> 100 µM
same,TGI,KM12 colon,> 100 µM
same,TGI,OVCAR-8 ovarian,73.2 µM
same,TGI,NCI-H522 lung,> 100 µM
same,TGI,EKVX NSCLC,> 100 µM
same,TGI,SK-MEL-5 melanoma,> 100 µM
same,TGI,BT-549 breast,> 100 µM
same,TGI,NCI-H226 lung,> 100 µM
same,TGI,DU-145 prostate,> 100 µM
same,TGI,MDA-MB-231 breast,> 100 µM
same,TGI,UO-31 renal,> 100 µM
same,TGI,SNB-19 CNS,> 100 µM
same,TGI,NCI-H23 lung,> 100 µM
same,TGI,TK-10 renal,> 100 µM
same,TGI,SN12C renal,> 100 µM
same,TGI,RPMI-8226 leukemia,> 100 µM
same,TGI,SK-OV-3 ovarian,> 100 µM
same,TGI,MCF7 breast,> 100 µM
same,TGI,T-47D breast,> 100 µM
same,TGI,SW-620 colon,> 100 µM
same,TGI,CAKI-1 renal,> 100 µM
same,TGI,HCT-116 colon,> 100 µM
